Reference: US7462600B2, “Macrolides” (Pfizer Inc, priority 2004, dated 2008)
Values after ≈ are worked out from the molar mass of the structure shown.

How the values were obtained:
Assay type in all cases: cell-based
[1] = test system: Streptococcus pyogenes 1079; test: MIC, microtiter broth dilution (NCCLS M100-S14), S. pyogenes 1079 (ermB); conditions: Streptococcus pyogenes 1079
In short: (§1)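 Panel strains, including macrolide-resistant isolates and their susceptible parents where available, are exposed to serial compound dilutions in microtiter trays. Growth inhibition is scored as MIC under NCCLS M100-S14 standards.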

[2] = test system: Streptococcus pneumoniae 1016; test: MIC, microtiter broth dilution (NCCLS M100-S14), S. pneumoniae 1016 (susceptible); conditions: Streptococcus pneumoniae 1016
In short: as §1

[3] = test system: Haemophilus influenzae 1218; test: MIC, microtiter broth dilution (NCCLS M100-S14), H. influenzae 1218 (susceptible); conditions: Haemophilus influenzae 1218
In short: as §1

[4] = test system: Streptococcus pneumoniae 1175; conditions: Streptococcus pneumoniae 1175; microtiter broth dilution
In short: as §1

[5] = test system: Streptococcus pneumoniae 1095; conditions: Streptococcus pneumoniae 1095; microtiter broth dilution
In short: as §1

SMILES	MIC S. pyogenes 1079 [1]	MIC S. pneumo. 1016 [2]	MIC H. influenzae 1218 [3]	MIC S. pneumo. 1175 [4]	MIC S. pneumo. 1095 [5]
CCC1OC(=O)C(C)C(=O)C(C)C(OC2OC(C)CC(N(C)C)C2O)C(C)(OC)CC(C)C(=O)C(C)C2N(C3CN(Cc4n[nH]c5ccccc45)C3)C(=O)OC12C (stereo not drawn) [Example 1.29, 3-descladinosyl-11,12-dideoxy-6-O-methyl-3-oxo-12,11-(oxycarbonyl-(1-((indazol-3-yl)-methyl)-azetidin-3-yl)-imino)-erythromycin A]	2 µg/mL (≈ 2.51 µM)	<0.06 µg/mL	0.5 µg/mL (≈ 0.627 µM)	1 µg/mL (≈ 1.25 µM)	<0.06 µg/mL
CCC1OC(=O)C(C)(F)C(=O)C(C)C(OC2OC(C)CC(N(C)C)C2O)C(C)(OC)CC(C)C(=O)C(C)C2N(C3CN(C(C)c4ccnc5ncccc45)C3)C(=O)OC12C (stereo not drawn) [Example 1.32, 3-descladinosyl-11,12-dideoxy-2-fluoro-6-O-methyl-3-oxo-12,11-(oxycarbonyl-(1-(1R-(1,8-naphthyridin-4-yl)-ethyl)-azetidin-3-yl)-imino)-erythromycin A]	0.12 µg/mL (≈ 0.143 µM)	<0.06 µg/mL	0.5 µg/mL (≈ 0.594 µM)	0.25 µg/mL (≈ 0.297 µM)	<0.06 µg/mL
CCC1OC(=O)C(C)(F)C(=O)C(C)C(OC2OC(C)CC(N(C)C)C2O)C(C)(OC)CC(C)C(=O)C(C)C2N(C3CN(Cc4ccnc5ncccc45)C3)C(=O)OC12C (stereo not drawn) [Example 1.33, 3-descladinosyl-11,12-dideoxy-2-fluoro-6-O-methyl-3-oxo-12,11-(oxycarbonyl-(1-((1,8-naphthyridin-4-yl)-methyl)-azetidin-3-yl)-imino)-erythromycin A]	0.25 µg/mL (≈ 0.302 µM)	<0.06 µg/mL	0.25 µg/mL (≈ 0.302 µM)	<0.06 µg/mL	<0.06 µg/mL
CCC1OC(=O)C(C)C(=O)C(C)C(OC2OC(C)CC(N(C)C)C2O)C(C)(OC)CC(C)C(=O)C(C)C2N(C3CN(Cc4ccc5nc(C)sc5n4)C3)C(=O)OC12C (stereo not drawn) [Example 1.34, (2-methyl-thiazolo[5,4-b]pyridin-5-yl)methyl]	32 µg/mL (≈ 38.6 µM)	<0.06 µg/mL	0.5 µg/mL (≈ 0.602 µM)	0.12 µg/mL (≈ 0.145 µM)	<0.06 µg/mL
CCC1OC(=O)C(C)C(=O)C(C)C(OC2OC(C)CC(N(C)C)C2O)C(C)(OC)CC(C)C(=O)C(C)C2N(C3CN(Cc4ccnc5ncsc45)C3)C(=O)OC12C (stereo not drawn) [Example 1.35, 3-descladinosyl-11,12-dideoxy-6-O-methyl-3-oxo-12,11-(oxycarbonyl-(1-((thiazolo[4,5-b]pyridin-7-yl)-methyl)-azetidin-3-yl)-imino)erythromycin A]	4 µg/mL (≈ 4.9 µM)	<0.06 µg/mL	1 µg/mL (≈ 1.23 µM)	0.12 µg/mL (≈ 0.147 µM)	<0.06 µg/mL
CCC1OC(=O)C(C)C(=O)C(C)C(OC2OC(C)CC(N(C)C)C2O)C(C)(OC)CC(C)C(=O)C(C)C2N(C3CN(Cc4cc(=O)[nH]c5ccc(Cl)cc45)C3)C(=O)OC12C (stereo not drawn) [Example 1.36, (6-chloro-1H-quinolin-2-on-4-yl)methyl]	8 µg/mL (≈ 9.31 µM)	<0.06 µg/mL	0.5 µg/mL (≈ 0.582 µM)	0.12 µg/mL (≈ 0.14 µM)	<0.06 µg/mL
CCC1OC(=O)C(C)C(=O)C(C)C(OC2OC(C)CC(N(C)C)C2O)C(C)(OC)CC(C)C(=O)C(C)C2N(C3CN(C(C)c4ccnc5cccnc45)C3)C(=O)OC12C (stereo not drawn) [Example 1.37, 3-descladinosyl-11,12-dideoxy-6-O-methyl-3-oxo-12,11-(oxycarbonyl-(1-(1R-(1,5-naphthyridin-4-yl)-ethyl)-azetidin-3-yl)-imino)erythromycin A]	4 µg/mL (≈ 4.85 µM)	<0.06 µg/mL	1 µg/mL (≈ 1.21 µM)	0.25 µg/mL (≈ 0.303 µM)	<0.06 µg/mL
CCC1OC(=O)C(C)C(=O)C(C)C(OC2OC(C)CC(N(C)C)C2O)C(C)(OC)CC(C)C(=O)C(C)C2N(C3CN(C(C)c4ccnc5cccnc45)C3)C(=O)OC12C (stereo not drawn) [Example 1.38, 3-descladinosyl-11,12-dideoxy-6-O-methyl-3-oxo-12,11-(oxycarbonyl-(1-(1S-(1,5-naphthyridin-4-yl)-ethyl)-azetidin-3-yl)-imino)erythromycin A]	4 µg/mL (≈ 4.85 µM)	<0.06 µg/mL	1 µg/mL (≈ 1.21 µM)	0.25 µg/mL (≈ 0.303 µM)	<0.06 µg/mL
CCC1OC(=O)C(C)C(=O)C(C)C(OC2OC(C)CC(N(C)C)C2O)C(C)(OC)CC(C)C(=O)C(C)C2N(C3CN(Cc4cc(OC)nc5ccccc45)C3)C(=O)OC12C (stereo not drawn) [Example 1.39, (2-methoxyquinolin-4-yl)methyl]	16 µg/mL (≈ 19.1 µM)	<0.06 µg/mL	1 µg/mL (≈ 1.19 µM)	0.25 µg/mL (≈ 0.298 µM)	<0.06 µg/mL
CCC1OC(=O)C(C)C(=O)C(C)C(OC2OC(C)CC(N(C)C)C2O)C(C)(OC)CC(C)C(=O)C(C)C2N(C3CN(Cc4cnn(-c5cccc(F)c5)c4)C3)C(=O)OC12C (stereo not drawn) [Example 1.41, (1-[3-fluorophenyl]-pyrazol-4-yl)methyl]	>64.00 µg/mL	<0.06 µg/mL	0.12 µg/mL (≈ 0.143 µM)	<0.06 µg/mL	<0.06 µg/mL
CCC1OC(=O)C(C)C(=O)C(C)C(OC2OC(C)CC(N(C)C)C2O)C(C)(OC)CC(C)C(=O)C(C)C2N(C3CN(Cc4c[nH]nc4-c4ccc(F)cc4)C3)C(=O)OC12C (stereo not drawn) [Example 1.42, (1H-3-[4-fluorophenyl]-pyrazol-4-yl)methyl]	>64.00 µg/mL	<0.06 µg/mL	2 µg/mL (≈ 2.38 µM)	0.25 µg/mL (≈ 0.297 µM)	<0.06 µg/mL
CCC1OC(=O)C(C)C(=O)C(C)C(OC2OC(C)CC(N(C)C)C2O)C(C)(OC)CC(C)C(=O)C(C)C2N(C3CN(Cc4cccc(-c5ccccn5)c4)C3)C(=O)OC12C (stereo not drawn) [Example 1.43, 3-(pyridin-2-yl)-benzyl]	16 µg/mL (≈ 19.2 µM)	<0.06 µg/mL	2 µg/mL (≈ 2.4 µM)	<0.06 µg/mL	<0.06 µg/mL
CCc1noc(-c2cccc(CN3CC(N4C(=O)OC5(C)C(CC)OC(=O)C(C)C(=O)C(C)C(OC6OC(C)CC(N(C)C)C6O)C(C)(OC)CC(C)C(=O)C(C)C45)C3)c2)n1 (stereo not drawn) [Example 1.44, 3-(3-ethyl-[1,2,4]oxadiazol-5-yl)benzyl]	>64.00 µg/mL	<0.06 µg/mL	16 µg/mL (≈ 18.7 µM)	0.5 µg/mL (≈ 0.585 µM)	<0.06 µg/mL
CCC1OC(=O)C(C)C(=O)C(C)C(OC2OC(C)CC(N(C)C)C2O)C(C)(OC)CC(C)C(=O)C(C)C2N(C3CN(Cc4ccc(-n5cccn5)nc4)C3)C(=O)OC12C (stereo not drawn) [Example 1.45]	16 µg/mL (≈ 19.4 µM)	<0.06 µg/mL	4 µg/mL (≈ 4.85 µM)	0.5 µg/mL (≈ 0.606 µM)	<0.06 µg/mL
CCC1OC(=O)C(C)C(=O)C(C)C(OC2OC(C)CC(N(C)C)C2O)C(C)(OC)CC(C)C(=O)C(C)C2N(C3CN(Cc4ccnc(-c5nc(C)no5)c4)C3)C(=O)OC12C (stereo not drawn) [Example 1.46, (2-[3-methyl-(1,2,4)oxadiazol-5-yl]pyridin-4-yl)methyl]	>64.00 µg/mL	<0.06 µg/mL	8 µg/mL (≈ 9.51 µM)	0.25 µg/mL (≈ 0.297 µM)	<0.06 µg/mL
CCC1OC(=O)C(C)C(=O)C(C)C(OC2OC(C)CC(N(C)C)C2O)C(C)(OC)CC(C)C(=O)C(C)C2N(C3CN(Cc4cccc(-c5cnco5)c4)C3)C(=O)OC12C (stereo not drawn) [Example 1.47, 3-(oxazol-5-yl)benzyl]	64 µg/mL (≈ 77.6 µM)	<0.06 µg/mL	0.25 µg/mL (≈ 0.303 µM)	<0.06 µg/mL	<0.06 µg/mL
CC[C@H]1OC(=O)[C@H](C)C(=O)[C@H](C)[C@@H](O[C@@H]2O[C@H](C)C[C@H](N(C)C)[C@H]2O)[C@](C)(OC)C[C@@H](C)C(=O)[C@H](C)[C@H]2N(C3CN(C(C)c4ccnc5ccccc45)C3)C(=O)O[C@]12C (stereo partly drawn) [Example 1.62, 3-descladinosyl-11,12-dideoxy-6-O-methyl-3-oxo-12,11-(oxycarbonyl-(1-(1-(quinolin-4-yl)-ethyl)-azetidin-3-yl)-imino)-erythromycin A]	2 µg/mL (≈ 2.43 µM)	<0.06 µg/mL	0.5 µg/mL (≈ 0.608 µM)	<0.06 µg/mL	<0.06 µg/mL
CC[C@H]1OC(=O)[C@H](C)C(=O)[C@H](C)[C@@H](O[C@@H]2O[C@H](C)C[C@H](N(C)C)[C@H]2O)[C@](C)(OC)C[C@@H](C)C(=O)[C@H](C)[C@H]2N(C3CN(C(C)c4ccnc5ccccc45)C3)C(=O)O[C@]12C (stereo partly drawn) [Example 1.63, 3-descladinosyl-11,12-dideoxy-6-O-methyl-3-oxo-12,11-(oxycarbonyl-(1-(1-(quinolin-4-yl)-ethyl)-azetidin-3-yl)-imino)-erythromycin A]	2 µg/mL (≈ 2.43 µM)	<0.06 µg/mL	1 µg/mL (≈ 1.22 µM)	0.12 µg/mL (≈ 0.146 µM)	<0.06 µg/mL
